Data on 5 compounds can be found in patent US8143240B2, “17α, 21-dihydroxypregnene esters as antiandrogenic agents” (Cosmo S.p.A., priority 2001, dated 2012).

This test has as its system flank organ. Kind of test: topical antiandrogenic activity test (hamster flank organ, Voigt and Hsia). Type of test: in vivo, hamsters. Particulars: 21 days. As to the method: The test was carried out on sexually immature female hamsters aged 6-8 weeks and weighing 65-90 grams.
At the beginning of the tests, the back of each animal was shaved to evidence the respective flank organ bilaterally. Animals were then subdivided into homogeneous groups and treated daily for 21 consecutive days. The tested steroids were dissolved at concentrations ranging from 100 to 400 micrograms in 50 microliters of an acetone solution containing 4 micrograms of testosterone propionate (TP) or 4 micrograms of dihydrotestosterone (DHT). 50 microliters of the solutions were applied to the right flank organ, while the contralateral organ used as individual control received only acetone (50 microliters). Control groups received TP or DHT alone, following the same procedures.
At the end of the tests, the animals were killed under ether anesthesia and the whole skine of the back was taken. The area of both flank organs was measured, separately, with transillumination. The mean differences between areas treated with the tested steroids and those treated with the carrier alone were calculated for each group, and said mean differences were compared, as inhibition percentages, to the mean differences between the areas in the control groups treated with either TP or DHT.

[1] abbreviates: DHT 4 μg + compound 400 μg daily, topical on right flank organ, female hamsters.
The mark [2] stands for this setting: TP 4 μg + compound 400 μg daily, topical on right flank organ, female hamsters.
[3] abbreviates: versus DHT control, DHT 4 μg + compound 400 μg daily, topical.
[4] abbreviates: versus TP control, TP 4 μg + compound 400 μg daily, topical.
The mark [5] stands for this setting: androgen alone (control group), 4 μg daily, topical.

As to `CCC(=O)O[C@]1(C(=O)CO)CC[C@H]2[C@@H]3CCC4=CC(=O)CC[C@]4(C)C3=CC[C@@]21C` [Compound A, 17α-propionyl-21-hydroxy-pregna-4,9-diene-3,20-dione], the “Mean difference of the areas” value was 9.7 ± 1.8 mm^2 under setting [1] and 3.7 ± 1.1 mm^2 under setting [2]. Besides, the % inhibition – broadly, the percentage by which the read-out fell short of the control – runs as follows: under setting [3], 53%; under setting [4], 84%.
Regarding `C[C@]12CCC(=O)C[C@@H]1CC[C@@H]1[C@@H]2CC[C@]2(C)[C@@H](O)CC[C@@H]12` [DHT, dihydrotestosterone, reference compound], under setting [5], the “Mean difference of the areas” value stood at 20.8 ± 2.5 mm^2.
Regarding `CCCC(=O)OCC(=O)[C@@]1(OC(=O)CCC)CC[C@H]2[C@@H]3CCC4=CC(=O)CC[C@]4(C)C3=CC[C@@]21C` [Ex. 1, 17α,21-dibutanoyl-pregna-4,9-diene-3,20-dione], the “Mean difference of the areas” value under setting [1] was determined as 3.7 ± 0.7 mm^2 and the “Mean difference of the areas” value under setting [2] stood at 2.4 ± 1.1 mm^2. For the same compound, the “% inhibition” value turned out to be 82% under setting [3] and 89% under setting [4].
Taken in the same sequence, the figures for `CCCC(=O)OCC(=O)[C@@]1(O)CC[C@H]2[C@@H]3CCC4=CC(=O)CC[C@]4(C)C3=CC[C@@]21C` [Ex. 2, 17α-hydroxy-21-butanoyl-pregna-4,9-diene-3,20-dione] were 4.1 ± 0.5 mm^2, 3.3 ± 1.2 mm^2, 80% and 85%.
Regarding `CCC(=O)O[C@H]1CC[C@H]2[C@@H]3CCC4=CC(=O)CC[C@]4(C)[C@H]3CC[C@]12C` [TP, testosterone propionate, reference compound], the “Mean difference of the areas” value under setting [5] was 22.7 ± 2.3 mm^2.
